Data from the supplement of paper PMC10307832.

Assays:
Assay in all cases: relative viability (nuclei count vs DMSO), 5 days (fraction); higher = more cells survive
[1] = compound: COc1ncc(-c2ccc3nccc(-c4ccnnc4)c3c2)cc1NS(=O)(=O)c1ccc(F)cc1F [Omipalisib] + CC1(C)CCC(c2ccc(Cl)cc2)=C(CN2CCN(c3ccc(C(=O)NS(=O)(=O)c4ccc(N[C@H](CCN5CCOCC5)CSc5ccccc5)c(S(=O)(=O)C(F)(F)F)c4)cc3)CC2)C1 [Navitoclax] (partner 0.5 µM)
How it was run: (§1)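 Lung cancer cell lines were seeded in 1536-well plates and dosed by pin tool the next day, with either a single drug or a fixed anchor-drug dose combined with five library-drug doses (not always all listed) spaced in √10 steps. Five days later, one step fixed the cells and stained their nuclei (final 0.05% Triton X-100, 1% formaldehyde, 1 ug/ml Hoechst), and nuclei were counted on 4× images. Relative viability is the nuclei count in treated wells divided by the count in vehicle wells, and each value is the median of duplicate plates.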

[2] = compound: COc1ncc(-c2ccc3nccc(-c4ccnnc4)c3c2)cc1NS(=O)(=O)c1ccc(F)cc1F [Omipalisib] + C[C@]1(O)C[C@@H](c2nc(-c3ccc4ccc(-c5ccccc5)nc4c3)c3c(N)nccn32)C1 [Linsitinib] (partner 1 µM)
How it was run: as §1

[3] = compound: COc1ncc(-c2ccc3nccc(-c4ccnnc4)c3c2)cc1NS(=O)(=O)c1ccc(F)cc1F [Omipalisib] + CC(=O)c1c(C)c2cnc(Nc3ccc(N4CCNCC4)cn3)nc2n(C2CCCC2)c1=O [Palbociclib] (partner 0.5 µM)
How it was run: as §1

[4] = compound: COc1ncc(-c2ccc3nccc(-c4ccnnc4)c3c2)cc1NS(=O)(=O)c1ccc(F)cc1F [Omipalisib] + COc1cc2c(Oc3ccc(NC(=O)C4(C(=O)Nc5ccc(F)cc5)CC4)cc3F)ccnc2cc1OCCCN1CCOCC1 [Foretinib] (partner 0.25 µM)
How it was run: as §1

[5] = compound: COc1ncc(-c2ccc3nccc(-c4ccnnc4)c3c2)cc1NS(=O)(=O)c1ccc(F)cc1F [Omipalisib] + Nc1nc2[nH]cc(CCc3ccc(C(=O)N[C@@H](CCC(=O)O)C(=O)O)cc3)c2c(=O)[nH]1 [Pemetrexed] (partner 0.2 µM)
How it was run: as §1

[6] = compound: COc1ncc(-c2ccc3nccc(-c4ccnnc4)c3c2)cc1NS(=O)(=O)c1ccc(F)cc1F [Omipalisib] + CS(=O)(=O)N1CCN(Cc2cc3nc(-c4cccc5[nH]ncc45)nc(N4CCOCC4)c3s2)CC1 [Pictilisib] (partner 1 µM)
How it was run: as §1

Cell Line	relative viability ([1]; first compound 0.0003 µM)	relative viability ([1]; first compound 0.003 µM)	relative viability ([1]; first compound 0.03 µM)	relative viability ([2]; first compound 0.0003 µM)	relative viability ([2]; first compound 0.003 µM)	relative viability ([2]; first compound 0.03 µM)	relative viability ([3]; first compound 0.0003 µM)	relative viability ([3]; first compound 0.003 µM)	relative viability ([3]; first compound 0.03 µM)	relative viability ([4]; first compound 0.0003 µM)	relative viability ([4]; first compound 0.003 µM)	relative viability ([4]; first compound 0.03 µM)	relative viability ([5]; first compound 0.0003 µM)	relative viability ([5]; first compound 0.003 µM)	relative viability ([5]; first compound 0.03 µM)	relative viability ([6]; first compound 0.0003 µM)	relative viability ([6]; first compound 0.003 µM)	relative viability ([6]; first compound 0.03 µM)
201T	1.21	1.2	0.838	1.03	0.916	0.769	0.325	0.343	0.27	1.12	0.864	0.308	0.342	0.309	0.266	0.706	0.668	0.554
A-427	0.957	0.732	0.872	1.11	1.09	0.968	0.501	0.49	0.455	0.865	1.01	0.718	0.983	0.922	0.931	0.729	0.697	0.744
ABC-1				0.771	0.572	0.586	0.603	0.482	0.364	1.05	0.824	0.561				0.72	0.628	0.533
BEN	0.0683	0.0526	0.0581	0.669	0.497	0.554	0.434	0.444	0.452	0.518	0.403	0.538	0.694	0.581	0.569	0.513	0.378	0.412
CAL-12T	1.1	1.17	0.466	0.75	0.822	0.513	0.533	0.415	0.142	1.26	1.06	0.684	1.17	1.15	0.721	0.579	0.524	0.385
COR-L23	1.15	0.778	0.432	0.813	0.771	0.38	0.286	0.246	0.212	0.974	1.01	0.719	0.2	0.2	0.197	0.723	0.709	0.449
COR-L 105	0.701	0.714	0.434	0.963	0.835	0.717	0.406	0.432	0.415	1.17	1.01	0.896	0.995	1.11	0.942	0.349	0.356	0.299
ChaGo-K-1	0.762	0.686	0.945				0.853	0.843	0.708	0.852	0.75	0.715	0.273	0.254	0.255	0.635	0.652	0.809
EKVX	0.979	0.773	0.48	1.06	0.76	0.456	0.301	0.326	0.182	0.649	0.801	0.183	0.491	0.437	0.264	0.45	0.434	0.393
EMC-BAC-2	1.12	0.92	0.566	0.797	0.693	0.438	0.441	0.38	0.311	0.91	0.637	0.482	0.481	0.463	0.418	0.514	0.465	0.432
EPLC-272H	1.12	0.945	0.327	1.38	0.893	0.248	0.311	0.306	0.225	0.574	0.388	0.196	0.34	0.39	0.235	0.403	0.377	0.298
H3255	0.495	0.362	0.201	0.999	0.888	0.485	0.365	0.313	0.285	0.731	0.669	0.494	0.576	0.577	0.469	0.432	0.439	0.293
HARA	1.1	1.19	0.733	0.949	0.691	0.275	0.267	0.181	0.169	0.928	0.897	0.26	0.274	0.272	0.21	0.464	0.661	0.354
HCC-15	0.667	0.54	0.462	0.929	0.77	0.799	0.748	0.614	0.521	0.944	0.814	0.721	0.23	0.213	0.209	0.698	0.599	0.702
HCC-44	0.848	0.63	0.27	0.658	0.457	0.282	0.962	0.962	0.879				0.68	0.682	0.694	0.579	0.464	0.441
HCC-78	0.68	0.466	0.193	0.389	0.358	0.24	0.48	0.411	0.414	0.436	0.433	0.266	0.88	0.927	0.922	0.198	0.183	0.189
HCC-366	1.03	0.341	0.12	0.394	0.156	0.0479	0.329	0.202	0.0493	0.849	0.772	0.189	0.214	0.257	0.171	0.137	0.1	0.0924
